Values quoted from earlier work in patent publication US20040224076A1, “Dietetic composition in the form of a salt substitute for table salt” (priority 1998, published 2004).

Conditions: oral supplementation, meta-analysis of 33 studies

[K+] [potassium]
reduction for diastolic pressure: 1.97 mm Hg | reduction for systolic pressure: 3.11 mm Hg
